Measurements from article PMC3836994, “Killer Bee Molecules: Antimicrobial Peptides as Effector Molecules to Target Sporogonic Stages of Plasmodium” (PLoS Pathogens, 2013).
Non-standard residues stand in square brackets, D forms with d. No end group written: not given here. pGlu = O=C1CC[C@@H](C(=O)O)N1

Key:
[1] = tested on: Anopheles gambiae Sua 4.0 cells; assay: Sua 4.0 mosquito cell viability (erythrosin B exclusion); format: cell-based; parameters: dose or concentration left out as unconfirmed; conditions: after 48 h culture; for Average viability of cells (3 replicates), peptide: erythrosin B exclusion, 100 cells in triplicate wells; for Reduction in cell viability: versus control
Description: (§1) To establish potential effects of AMPs on mosquito cells, the An. gambiae Sua 4.0 cell line was used. This facilitated an initial high-throughput screening and provided insights into AMP toxicity, mode of action (lytic or other) and speed of action. Sua 4.0 cells were maintained at 27°C in Schneider's insect medium supplemented with 10% FBS (foetal bovine serum) in T25 culture flasks (Fisher, UK).
(§2) Each AMP was tested separately to establish if it affected cell viability and growth. […] Cells were maintained for 3, 6, 24 or 48 h, after which they were resuspended and a sub-sample from duplicate wells counted using a haemocytometer. To establish cell viability after 48 h (whether simply arrested in development or non-viable), resuspended cells were added to an equal volume of 5% erythrosin B vital dye and viable cells excluding the stain were counted. The viability of 100 cells in triplicate wells was recorded. Each AMP assay was performed in triplicate and included a negative control minus the peptide (5 µl of water alone added to the medium) and a further control of 5 µl of 10% SDS (sodium dodecyl sulphate) substituted for the AMP as this causes 100% cell lysis.

[2] = tested on: Anopheles gambiae Sua 4.0 cells; assay: Sua 4.0 mosquito cell growth (cell counts); format: cell-based; conditions: 25 µM AMP; for Average number of cells over 3 replicates, peptide: seeded 30×10^4/ml, mean of 3 experiments
Description: as §1, §2

P. berghei ookinetes = assay: P. berghei ookinete viability in vitro (erythrosin B); format: cell-based, Plasmodium berghei; conditions: for Average ookinete viability (3 reps), peptide / Reduction in ookinete viability: 30 min; for Reduction in ookinete viability: versus control
Description: Our primary aim was to target parasites in mosquitoes before they cross the midgut wall, therefore AMPs were first assessed for their ability to kill ookinetes in vitro. […] Ookinete cultures of P. berghei were established from gametocytaemic blood as previously described. Parasites were enriched using cold 0.17M ammonium chloride after 18 h of culture and washed thoroughly with PBS (phosphate buffered saline). Parasites were seeded in triplicate wells of a 96-well microtitre plate at a density of 1×10^5/ml in a volume of 47.5 µl Schneider's insect medium (Invitrogen) with 2.5 µl of the test AMP (final concentration of 50 µM). Ookinetes were incubated for 30 min in conjunction with triplicate control wells containing medium with 2.5 µl of water instead of AMP. A sub-sample of parasites was then added to an equal volume of 5% erythrosin B to assess viability (150 ookinetes in total, taken from 3 wells). Each of the 33 AMPs was screened in this way and assays were performed 3 times. AMPs displaying a high degree of toxicity (>90% of ookinetes displaying erythrosin B staining) underwent further ookinete assays using a concentration of 100 µM AMP. To assess synergistic effects, combinations of two peptides were also tested at a concentration of 25 µM per AMP, in the assay described above.

[3] = tested on: An. gambiae (Mali strain); assay: Mosquito longevity after blood feeds containing AMP; format: in vivo, Anopheles gambiae; conditions: for Significance of effect on longevity over 10 days: 50 µM AMP, Kaplan-Meier, Wilcoxon, peptide vs control; for Percent alive, peptide: over 10 days, 50 µM AMP in human blood, feeds on days 0 and 7, 3 or 4 replicates
Description: (§3) Female An. gambiae (Mali strain, 3–5 days old) were used to establish the effects of AMPs on mosquito longevity and fecundity in the absence of confounding factors introduced with parasite infection. Two hundred 3–6 day old females were fed on human O+ whole blood supplemented with 50 µM AMP (or water control, 1 ml total volume) via feeding chambers of a Hemotek membrane feeding system. Fully engorged mosquitoes were randomly moved into four separate cages, each containing 25 mosquitoes, to facilitate monitoring. Mortality rates were recorded daily for a 10-day period, and oviposition sites were provided on the second and third night post-feeding. A second blood feed containing the same AMP was administered 7 days later to mimic the likelihood that mosquitoes would feed at least twice in the field during the development of sporogonic stages of the malaria parasite. Oviposition sites were again provided to assess fecundity through the number of eggs laid as an average per surviving mosquito. Assays for each AMP were repeated in triplicate on separate generations of mosquitoes. Due to egg retention under experimental conditions, egg production is best measured by dissecting mosquitoes that have not been provided with an oviposition site. However, this is not a feasible method of determining fecundity when longevity is also being measured.

[4] = tested on: An. gambiae (Mali strain); assay: Mosquito oviposition after blood feed containing AMP; format: in vivo, Anopheles gambiae; conditions: for Significance of effect on oviposition: 50 µM AMP, one-way ANOVA, peptide vs control; for Mean no. of eggs laid per mosquito, peptide: after first feed with 50 µM AMP, eggs laid over two nights, averaged per surviving mosquito, 3 or 4 replicates
Description: as §3

P. berghei = P. berghei infections in Anopheles stephensi (oocyst prevalence and intensity); format: in vivo, Plasmodium berghei; conditions: for Prevalence (proportion of infected mosquitoes), peptide: 50 µM peptide in gametocytaemic mouse blood fed to An. stephensi; for Intensity (mean number of oocysts, range in parentheses), peptide: 50 µM peptide, An. stephensi
Description: To assess the effects of AMPs on parasites in vivo, mouse blood containing P. berghei gametocytes was obtained by cardiac puncture and 475 µl was rapidly mixed with 25 µl (50 µM final concentration) of AMP. This mixture was fed to 100 nulliparous 3–5 day old female An. stephensi. A further 475 µl of blood from the same infection was mixed with 25 µl of distilled water to act as a control. Mosquitoes were maintained at 19°C for optimum parasite development. Between 30 and 50 mosquitoes were dissected after 10 days. Mosquito wing length, numbers of retained eggs and oocysts were recorded in triplicate experiments carried out on different mosquito cohorts.

P. falciparum = assay: Field P. falciparum from gametocyte carriers membrane-fed to An. gambiae (Mali); format: in vivo, Plasmodium falciparum; conditions: Replicate 1, 50 µM; for Oocyst prevalence (oocyst positive mosquitoes), peptide: blood of gametocyte carriers, progeny of field An. gambiae; for Oocyst intensity (mean number of oocysts per gut, range in parentheses), peptide: field parasites and mosquitoes
From the text: Nyaganabougou, a village approximately 60 km south-west of the Malian capital, Bamako, was used as a site for the source of donors of malaria-infected blood. Due to its proximity to the river Niger, which provides perennial mosquito breeding sites, Nyaganabougou has high numbers of infected individuals and an extended transmission season. Mosquitoes used to establish the An. gambiae Mali colony used for this study were originally collected in the village of Kenieroba (a distance of 15 km from Nyaganabougou). Potential male and female gametocyte carriers between the ages of 6–10 were screened by thick smear and parasite species and density determined by local staff, led by Saibou Doumbia.
Gametocyte carriers were taken to the Malaria Research and Training Centre at the University of Bamako for blood donation. Approximately 4 ml of blood was extracted from carriers and immediately divided into 3 Hemotek membrane feeders for testing 2 separate AMPs and one control for each carrier. Peptides were added to 950 µl of gametocytaemic blood for a final concentration of 50 µM. All parasite-positive individuals were subsequently treated appropriately for parasites and associated symptoms, as determined by, and carried out by, local health workers in Nyaganabougou.
Approximately 120 adult female An. gambiae (Mali, 4–7 days old) were starved overnight, and allowed to feed on the gametocytaemic blood/AMP mix for 30 min. Engorged females were maintained on 10% glucose with 0.05% PABA for 8 days before dissection. No oviposition sites were provided so that fecundity could be measured by determining retained eggs. Mosquito wing length, numbers of retained eggs and oocysts were recorded, and triplicate peptide experiments were carried out on different mosquito cohorts, using blood from different donors. Where possible, a minimum of 50 mosquitoes were dissected for each condition.

[5] = 50 µM of single peptide, n = 150 ookinetes per treatment per replicate

## CC[C@H](C)[C@H](N)C(=O)N[C@@H](CC(C)C)C(=O)N1CCC[C@H]1C(=O)N[C@@H](Cc1c[nH]c2ccccc12)C(=O)N[C@@H](CCCCN)C(=O)N[C@@H](Cc1c[nH]c2ccccc12)C(=O)N1CCC[C@H]1C(=O)N[C@@H](Cc1c[nH]c2ccccc12)C(=O)N[C@@H](Cc1c[nH]c2ccccc12)C(=O)N1CCC[C@H]1C(=O)N[C@@H](Cc1c[nH]c2ccccc12)C(=O)N[C@@H](CCCNC(=N)N)C(=O)N[C@@H](CCCNC(=N)N)C(N)=O [Indolicidin]
[1]
  Average viability of cells (3 replicates), peptide: 61%
  Reduction in cell viability: 36%

## CKQSCSFGPFTFVCDGNTK (also: bicyclic or more (positions not given here)) [Duramycin, A lantibiotic from bacteria, 19 aa (Sigma D3168)]
[2]; 3 hrs in culture
  Reduction in cell number (compared to control): 42%
[2]; 3 hrs in culture, haemocytometer count of duplicate wells
  Average number of cells over 3 replicates, peptide: 180000 mL⁻¹
[2]; 24 hrs in culture
  Reduction in cell number (compared to control): 73%
  Average number of cells over 3 replicates, peptide: 130000 mL⁻¹
[2]; 48 hrs in culture
  Reduction in cell number (compared to control): 88%
  Average number of cells over 3 replicates, peptide: 90000 mL⁻¹
[1]
  Average viability of cells (3 replicates), peptide: 0%
  Reduction in cell viability: 100%
P. berghei ookinetes; [5]
  Average ookinete viability (3 reps), peptide: 11%
P. berghei ookinetes; 50 µM of single peptide
  Reduction in ookinete viability: 88%
P. berghei ookinetes; 100 µM of single peptide
  Average ookinete viability (3 reps), peptide: 1%
  Reduction in ookinete viability: 99%
[3]
  Significance of effect on longevity over 10 days: N/S
  Percent alive, peptide: 84%
[4]
  Significance of effect on oviposition: N/S
  Mean no. of eggs laid per mosquito, peptide: 39
P. berghei; Replicate 1
  Prevalence (proportion of infected mosquitoes), peptide: 80% (50)
  Intensity (mean number of oocysts, range in parentheses), peptide: 17 (0–114)
P. berghei; Replicate 2
  Prevalence (proportion of infected mosquitoes), peptide: 88% (50)
  Intensity (mean number of oocysts, range in parentheses), peptide: 59 (0–294)
P. berghei; Replicate 3
  Prevalence (proportion of infected mosquitoes), peptide: 98% (50)
  Intensity (mean number of oocysts, range in parentheses), peptide: 135 (0–319)

## GLLKRIKTLL [Anoplin, 10 aa peptide isolated from the solitary wasp, homology to Mastoparan X]
P. berghei ookinetes; [5]
  Average ookinete viability (3 reps), peptide: 10%
P. berghei ookinetes; 50 µM of single peptide
  Reduction in ookinete viability: 89%
P. berghei ookinetes; 100 µM of single peptide
  Average ookinete viability (3 reps), peptide: 2%
  Reduction in ookinete viability: 98%
[3]
  Significance of effect on longevity over 10 days: N/S
  Percent alive, peptide: 80%
[4]
  Significance of effect on oviposition: N/S
  Mean no. of eggs laid per mosquito, peptide: 36
P. berghei; Replicate 1
  Prevalence (proportion of infected mosquitoes), peptide: 66% (44)
  Intensity (mean number of oocysts, range in parentheses), peptide: 21 (0–147)
P. berghei; Replicate 2
  Prevalence (proportion of infected mosquitoes), peptide: 98% (50)
  Intensity (mean number of oocysts, range in parentheses), peptide: 74 (0–580)
P. berghei; Replicate 3
  Prevalence (proportion of infected mosquitoes), peptide: 100% (50)
  Intensity (mean number of oocysts, range in parentheses), peptide: 177 (1–666)

## RRWQWRMKKLG [Lactoferricin B, Product of pepsin cleavage of bovine lactoferrin]
P. falciparum
  Oocyst prevalence (oocyst positive mosquitoes), peptide: 46% (37)
  Oocyst intensity (mean number of oocysts per gut, range in parentheses), peptide: 2 (0–17)

## Scorpine
P. berghei ookinetes; in our hands, rodent or human malaria, test not specified further, actual concentration may have been lower than expected
  Efficacy against malaria parasites (in words): not effective against rodent or human malaria

## [pGlu]GMIGTLTSKRIKQ [Levitide, Isolated from skin secretions of Xenopus laevis]
P. falciparum
  Oocyst prevalence (oocyst positive mosquitoes), peptide: 8% (60)
  Oocyst intensity (mean number of oocysts per gut, range in parentheses), peptide: <1 (0–1)
